The values below come from patent publication US20240109917A1 (ACTELION PHARMACEUTICALS LTD, priority 2020, published 2024).

Bounds are passed on as bounds.

The target in one test is VEGFR2, unphosphorylated (Homo sapiens (Human), UniProt P35968). In words: VEGFR ADP GLO Assay. The class given is biochemical. (In general: In ADP-Glo the light output rises with the ADP produced.)
Test [1] has as its target Tb-labeled inactive PDGFRβ (Homo sapiens (Human), UniProt P09619). Briefly: PDGFRβ LanthaScreen Assay. The class given is binding. Conditions: read-out: PDGFR Lantha IC50. (In TR-FRET formats the signal depends on donor and acceptor labels being close together.)

The IC50 is the concentration needed to halve the response being measured.

VEGFR2, unphosphorylated, sequence (P35968 20-1356): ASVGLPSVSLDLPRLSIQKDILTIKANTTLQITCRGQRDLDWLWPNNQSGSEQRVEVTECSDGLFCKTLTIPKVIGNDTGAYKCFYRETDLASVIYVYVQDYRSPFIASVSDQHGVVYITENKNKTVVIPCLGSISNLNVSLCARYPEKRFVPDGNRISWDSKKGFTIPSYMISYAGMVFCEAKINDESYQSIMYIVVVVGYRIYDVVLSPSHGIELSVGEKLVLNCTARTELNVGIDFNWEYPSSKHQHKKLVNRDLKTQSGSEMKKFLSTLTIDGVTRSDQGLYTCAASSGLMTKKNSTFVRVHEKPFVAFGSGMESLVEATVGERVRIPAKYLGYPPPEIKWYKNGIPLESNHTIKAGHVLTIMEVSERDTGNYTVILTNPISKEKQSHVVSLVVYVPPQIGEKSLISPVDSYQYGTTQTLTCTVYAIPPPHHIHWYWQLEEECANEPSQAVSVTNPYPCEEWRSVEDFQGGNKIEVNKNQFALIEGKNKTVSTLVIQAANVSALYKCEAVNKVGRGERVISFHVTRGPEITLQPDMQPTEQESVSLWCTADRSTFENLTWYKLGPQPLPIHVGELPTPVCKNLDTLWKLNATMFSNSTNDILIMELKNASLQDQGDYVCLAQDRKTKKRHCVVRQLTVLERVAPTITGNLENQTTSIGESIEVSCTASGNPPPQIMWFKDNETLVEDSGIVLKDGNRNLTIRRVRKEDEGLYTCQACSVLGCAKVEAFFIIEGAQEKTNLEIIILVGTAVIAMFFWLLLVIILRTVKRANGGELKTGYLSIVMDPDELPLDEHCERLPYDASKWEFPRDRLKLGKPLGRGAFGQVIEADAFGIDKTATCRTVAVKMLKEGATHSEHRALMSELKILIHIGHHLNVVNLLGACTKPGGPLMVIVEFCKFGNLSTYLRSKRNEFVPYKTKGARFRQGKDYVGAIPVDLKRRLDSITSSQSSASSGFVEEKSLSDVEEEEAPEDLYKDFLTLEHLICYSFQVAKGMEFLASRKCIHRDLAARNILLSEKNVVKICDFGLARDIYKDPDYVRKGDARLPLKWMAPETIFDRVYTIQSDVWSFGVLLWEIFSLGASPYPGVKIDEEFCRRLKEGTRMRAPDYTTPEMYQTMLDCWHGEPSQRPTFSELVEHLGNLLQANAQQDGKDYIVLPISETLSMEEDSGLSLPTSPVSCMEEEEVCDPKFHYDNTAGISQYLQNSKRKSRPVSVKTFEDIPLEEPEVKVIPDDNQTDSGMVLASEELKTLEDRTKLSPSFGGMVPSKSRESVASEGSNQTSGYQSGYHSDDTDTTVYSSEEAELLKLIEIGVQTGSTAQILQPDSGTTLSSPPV
Tb-labeled inactive PDGFRβ, sequence (P09619 33-1106): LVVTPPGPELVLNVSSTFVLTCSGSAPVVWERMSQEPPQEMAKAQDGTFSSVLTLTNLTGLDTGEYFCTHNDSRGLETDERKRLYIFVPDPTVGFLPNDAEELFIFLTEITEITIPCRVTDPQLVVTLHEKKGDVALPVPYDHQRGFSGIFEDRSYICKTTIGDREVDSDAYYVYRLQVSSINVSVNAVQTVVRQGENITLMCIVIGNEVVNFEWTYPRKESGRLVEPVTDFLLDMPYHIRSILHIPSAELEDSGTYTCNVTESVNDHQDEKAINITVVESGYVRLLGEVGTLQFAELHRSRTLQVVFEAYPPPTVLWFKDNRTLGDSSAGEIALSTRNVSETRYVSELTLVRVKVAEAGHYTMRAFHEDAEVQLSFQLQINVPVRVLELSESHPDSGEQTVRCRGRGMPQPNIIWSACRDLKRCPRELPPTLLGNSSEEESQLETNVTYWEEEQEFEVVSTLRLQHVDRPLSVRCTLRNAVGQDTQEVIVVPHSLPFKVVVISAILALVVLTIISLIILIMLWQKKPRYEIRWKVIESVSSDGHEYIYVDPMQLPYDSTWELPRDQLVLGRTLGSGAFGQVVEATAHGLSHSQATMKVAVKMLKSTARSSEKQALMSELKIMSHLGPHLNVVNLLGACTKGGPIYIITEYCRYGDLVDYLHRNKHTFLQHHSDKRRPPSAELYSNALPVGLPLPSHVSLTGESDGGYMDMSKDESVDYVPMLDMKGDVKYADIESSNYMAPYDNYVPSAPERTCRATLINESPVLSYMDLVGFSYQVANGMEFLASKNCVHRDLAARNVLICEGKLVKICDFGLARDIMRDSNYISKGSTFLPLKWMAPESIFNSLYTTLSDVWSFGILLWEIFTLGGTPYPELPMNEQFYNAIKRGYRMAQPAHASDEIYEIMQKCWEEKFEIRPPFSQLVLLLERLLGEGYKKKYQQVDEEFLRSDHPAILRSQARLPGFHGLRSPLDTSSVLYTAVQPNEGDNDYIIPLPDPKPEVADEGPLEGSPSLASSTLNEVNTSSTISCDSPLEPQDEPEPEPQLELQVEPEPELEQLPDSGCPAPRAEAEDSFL

Regarding `Cc1ncc(NC(=O)CN2CCC3(CCOC3)C2)cc1NC(=O)c1cnn2cc(-c3cnn(C)c3)sc12` (stereo not drawn) [Example 19, N-(5-(2-(2-oxa-7-azaspiro[4.4]nonan-7-yl)acetamido)-2-methylpyridin-3-yl)-2-(1-methyl-1H-pyrazol-4-yl)pyrazolo[5,1-b]thiazole-7-carboxamide], the IC50 at VEGFR2, unphosphorylated was greater than 7500 nM; in test [1] it was 4.2 nM.
The like results for `Cc1ncc(NC(=O)CN2CCCC23COC3)cc1NC(=O)c1cnn2cc(-c3cnn(C)c3)sc12` [Example 20, N-(5-(2-(2-oxa-5-azaspiro[3.4]octan-5-yl)acetamido)-2-methyl-pyridin-3-yl)-2-(1-methyl-1H-pyrazol-4-yl)pyrazolo[5,1-b]thiazole-7-carboxamide] were, in that order, greater than 7500 nM and 8.2 nM.
As for `Cc1ncc(NC(=O)CN2CCC3(CCCO3)C2)cc1NC(=O)c1cnn2cc(-c3cnn(C)c3)sc12` (stereo not drawn) [Example 21, N-(5-(2-(1-oxa-7-azaspiro[4.4]nonan-7-yl)acetamido)-2-methylpyridin-3-yl)-2-(1-methyl-1H-pyrazol-4-yl)pyrazolo[5,1-b]thiazole-7-carboxamide], the IC50 against VEGFR2, unphosphorylated is greater than 7500 nM; in test [1] it was 5.7 nM.
For `Cc1ncc(NC(=O)CN2CC(C)(C)C2)cc1NC(=O)c1cnn2cc(-c3cnn(C)c3)sc12` [Example 22, N-(5-(2-(3,3-dimethylazetidin-1-yl)acetamido)-2-methylpyridin-3-yl)-2-(1-methyl-1H-pyrazol-4-yl)pyrazolo[5,1-b]thiazole-7-carboxamide] the same measures were greater than 7500 nM and 8.6 nM.
For `Cc1ncc(NC(=O)CN2CCc3ccncc3C2)cc1NC(=O)c1cnn2cc(-c3cnn(C)c3)sc12` [Example 23, N-(5-(2-(3,4-dihydro-2,7-naphthyridin-2 (1H)-yl)acetamido)-2-methylpyridin-3-yl)-2-(1-methyl-1H-pyrazol-4-yl)pyrazolo[5,1-b]thiazole-7-carboxamide], the IC50 is greater than 7500 nM against VEGFR2, unphosphorylated and 1.3 nM in test [1].
For `Cc1ncc(NC(=O)CN2CCCC3(COC3)C2)cc1NC(=O)c1cnn2cc(-c3cnn(C)c3)sc12` [Example 24, N-(5-(2-(2-oxa-6-azaspiro[3.5]nonan-6-yl)acetamido)-2-methylpyridin-3-yl)-2-(1-methyl-1H-pyrazol-4-yl)pyrazolo[5,1-b]thiazole-7-carboxamide] the same measures were greater than 7500 nM and 4.5 nM.
For `Cc1ncc(NC(=O)CN2CCCCC23COC3)cc1NC(=O)c1cnn2cc(-c3cnn(C)c3)sc12` [Example 25, N-(5-(2-(2-oxa-5-azaspiro[3.5]nonan-5-yl)acetamido)-2-methylpyridin-3-yl)-2-(1-methyl-1H-pyrazol-4-yl)pyrazolo[5,1-b]thiazole-7-carboxamide] the same measures were greater than 7500 nM and 6.6 nM.
In the case of `COc1ncccc1-c1cn2ncc(C(=O)Nc3cc(NC(=O)OCCN4CCCC4(C)C)cnc3C)c2s1` [Example 254, 2-(2,2-dimethylpyrrolidin-1-yl)ethyl (5-(2-(2-methoxypyridin-3-yl)pyrazolo[5,1-b]thiazole-7-carboxamido)-6-methylpyridin-3-yl)carbamate], the IC50 against VEGFR2, unphosphorylated is greater than 7500 nM; in test [1] it was 2.6 nM.
Consider `COc1ncccc1-c1cn2ncc(C(=O)Nc3cc(NC(=O)OCC(C)N4CCCC4)cnc3C)c2s1` (stereo not drawn) [Example 255, 2-(pyrrolidin-1-yl)propyl (5-(2-(2-methoxypyridin-3-yl)pyrazolo[5,1-b]thiazole-7-carboxamido)-6-methylpyridin-3-yl)carbamate], for which the IC50 against VEGFR2, unphosphorylated is greater than 7500 nM; in test [1], 1.9 nM.
Consider `Cc1ncc(NC(=O)OC[C@@H]2CCCN2C)cc1NC(=O)c1cnn2cc(-c3cccnc3O)sc12` [Example 256, (S)-(1-methylpyrrolidin-2-yl)methyl (5-(2-(2-hydroxypyridin-3-yl)pyrazolo[5,1-b]thiazole-7-carboxamido)-6-methylpyridin-3-yl)carbamate], for which the IC50 against VEGFR2, unphosphorylated was greater than 7500 nM; in test [1], 14.9 nM.
`Cc1ncc(NC(=O)OC[C@@H]2CCCN2C)cc1NC(=O)c1cnn2cc(-c3cccc4c3cnn4C)sc12` [Example 257, (S)-(1-methylpyrrolidin-2-yl)methyl (6-methyl-5-(2-(1-methyl-1H-indazol-4-yl)pyrazolo[5,1-b]thiazole-7-carboxamido)pyridin-3-yl)carbamate]: the IC50 is greater than 2500 nM against VEGFR2, unphosphorylated and 2.6 nM in test [1].
Take `Cc1ncc(NC(=O)OC[C@@H]2CCCN2C)cc1NC(=O)c1cnn2cc(-c3cc[nH]c3)sc12` [Example 258, (S)-(1-methylpyrrolidin-2-yl)methyl (5-(2-(1H-pyrrol-3-yl)pyrazolo[5,1-b]thiazole-7-carboxamido)-6-methylpyridin-3-yl)carbamate]: the IC50 on VEGFR2, unphosphorylated is greater than 7500 nM; in test [1], 4.2 nM.
For the molecule `Cc1ncc(NC(=O)CN2CCCC2(C)C)cc1NC(=O)c1cnn2cc(-n3ncc4cccnc43)sc12` [Example 259, N-(5-(2-(2,2-dimethylpyrrolidin-1-yl)acetamido)-2-methylpyridin-3-yl)-2-(1H-pyrazolo[3,4-b]pyridin-1-yl)pyrazolo[5,1-b]thiazole-7-carboxamide], the IC50 against VEGFR2, unphosphorylated is greater than 7500 nM; in test [1], 2.8 nM.
For the molecule `Cc1ncc(NC(=O)CCN2CCCC2(C)C)cc1NC(=O)c1cnn2cc(-n3ncc4cccnc43)sc12` [Example 260, N-(5-(3-(2,2-dimethylpyrrolidin-1-yl)propanamido)-2-methylpyridin-3-yl)-2-(1H-pyrazolo[3,4-b]pyridin-1-yl)pyrazolo[5,1-b]thiazole-7-carboxamide], the IC50 against VEGFR2, unphosphorylated was greater than 7500 nM; in test [1], 2.1 nM.
For the molecule `COCCn1cc(-c2cn3ncc(C(=O)Nc4cc(NC(=O)CN5CC(C)(C)C5)cnc4C)c3s2)cn1` [Example 261, N-(5-(2-(3,3-dimethylazetidin-1-yl)acetamido)-2-methylpyridin-3-yl)-2-(1-(2-methoxyethyl)-1H-pyrazol-4-yl)pyrazolo[5,1-b]thiazole-7-carboxamide], the IC50 was greater than 7500 nM on VEGFR2, unphosphorylated and 4.9 nM in test [1].
In the case of `Cc1ncc(NC(=O)CN2CC(C)(C)C2)cc1NC(=O)c1cnn2cc(-c3cnn(C4CS(=O)(=O)C4)c3)sc12` [Example 262, N-(5-(2-(3,3-dimethylazetidin-1-yl)acetamido)-2-methylpyridin-3-yl)-2-(1-(1,1-dioxidothietan-3-yl)-1H-pyrazol-4-yl)pyrazolo[5,1-b]thiazole-7-carboxamide], the IC50 against VEGFR2, unphosphorylated is greater than 7500 nM; in test [1], 6.1 nM.
Take `Cc1ncc(NC(=O)CN2CC(C)(C)C2)cc1NC(=O)c1cnn2cc(-c3cnn(CC4COC4)c3)sc12` [Example 263, N-(5-(2-(3,3-dimethylazetidin-1-yl)acetamido)-2-methylpyridin-3-yl)-2-(1-(oxetan-3-ylmethyl)-1H-pyrazol-4-yl)pyrazolo[5,1-b]thiazole-7-carboxamide]: the IC50 at VEGFR2, unphosphorylated was greater than 7500 nM; in test [1], 7.9 nM.
In the case of `Cc1ncc(NC(=O)CN2CC(C)(C)C2)cc1NC(=O)c1cnn2cc(-c3cnn(C4COC4)c3)sc12` [Example 264, N-(5-(2-(3,3-dimethylazetidin-1-yl)acetamido)-2-methylpyridin-3-yl)-2-(1-(oxetan-3-yl)-1H-pyrazol-4-yl)pyrazolo[5,1-b]thiazole-7-carboxamide], the IC50 at VEGFR2, unphosphorylated is greater than 7500 nM; in test [1], 6.1 nM.
